Measurements: US20130217644A1, “Pharmaceutical Compositions of 2'-C-Methyl-Guanosine, 5'-[2[(3-Hydroxy-2,2-Dimethyl-1-Oxopropyl)Thio]Ethyl N-(Phenylmethyl)Phosphoramidate]” (IDENIX PHARMACEUTICALS, INC., priority 2012, published 2013)

What was measured:
HCV replication = settings: in-vitro assays, as described in U.S. Pat. No. 7,951,789; cited from earlier work
[1] = Excipient compatibility: ethylene sulfide in 1:1 blends of compound 1 and excipient; assay type: physicochemical; settings: 1:1 weight ratio of compound 1 and excipient, glass vials, gentle rotation 30 minutes, ambient conditions
Description: Excipient compatibility of compound 1 with various excipients was determined. Samples of a 1:1 weight ratio of compound 1 and each excipient were blended in glass vials. The vials were subjected to gentle rotation to 30 minutes at ambient conditions. Samples were assayed for ethylene sulfide. Table 3 below presented the results for a selected group of the excipients evaluated: […]

[2] = Open-label randomized cross-over single-dose pharmacokinetic study, tablet vs liquid filled capsule; assay type: in vivo, human; settings: 50 mg single doses (tablet and capsule), healthy male subjects
Description: A lot of tablets manufactured under cGMP conditions utilizing the composition of Example 3 (with appropriate adjustment of the weight % of PROSOLV SMCC 90 to account for the potency of Compound 1) were utilized in a pharmacokinetic study. The human clinical study was study performed in conformance with the Declaration of Helsinki and approved by a local Ethics Committee. An open-label randomized cross-over single-dose pharmacokinetic effect study was conducted in 12 healthy male subjects (ages 19-65) to compare the relative exposure of the tablet composition (50 mg compound 1) as compared to the liquid filled capsule composition (50 mg of compound 1) in the fasted state. In addition, an un-randomized third period followed the first two periods in which all 12 subjects were dosed with the tablet composition (50 mg compound 1) in the fed state, and 8 of the 12 subjects returned for a fourth period in which the 8 subjects were dosed with the liquid filled capsule composition (50 mg compound 1) in the fed state. Plasma samples for pharmacokinetic (PK) analysis were taken over a period of 120 h after dosing during each treatment period. Dosing days were at least 6 days apart (Period 1, days 1 to 6; Period 2, days 7 to 13, Period 3, days 14 to 20; and Period 4 followed the initial three periods). […] The pharmacokinetic samples were assayed for 2′-C-methyl-guanosine as well as compound 1.

For `CC(C)(CO)C(=O)SCCOP(=O)(NCc1ccccc1)OC[C@H]1O[C@@H](n2cnc3c(=O)[nH]c(N)nc32)C(C)(O)C1O` (stereo partly drawn) [Compound 1, 2′-C-methyl-guanosine, 5′-[2-[(3-hydroxy-2,2-dimethyl-1-oxopropyl)thio]ethyl N-(phenylmethyl)phosphoramidate]], the “inhibition of HCV replication (in words)” value (HCV replication) is given as “ability to inhibit HCV replication”, the “ppm Ethylene Sulfide Mean of 4 samples” value [1] is given as less than 9 ppm and the serious adverse events [2] is given as “No serious adverse events were reported”.
